Measured values reported in patent US20090099169A1, “Benzofuran Compounds As EP1 Receptor Antagonists” (GLAXO GROUP LIMITED, priority 2006, published 2009).
Structures can show the parent of a compound that is named as a salt.

Key:
[1] = target: T1, human TP receptor (Homo sapiens, UniProt P21731); assay: human TP calcium mobilisation assay; assay type: cell-based; conditions: CHO-K1 cells, antagonism of U46619; averages of a number of experiments; read-out: functional pKi value (human TP calcium mobilisation assay) (converted)
T1 construct: expressed in transfected cells; host or cells: CHO-K1
T1 sequence (P21731 1-343): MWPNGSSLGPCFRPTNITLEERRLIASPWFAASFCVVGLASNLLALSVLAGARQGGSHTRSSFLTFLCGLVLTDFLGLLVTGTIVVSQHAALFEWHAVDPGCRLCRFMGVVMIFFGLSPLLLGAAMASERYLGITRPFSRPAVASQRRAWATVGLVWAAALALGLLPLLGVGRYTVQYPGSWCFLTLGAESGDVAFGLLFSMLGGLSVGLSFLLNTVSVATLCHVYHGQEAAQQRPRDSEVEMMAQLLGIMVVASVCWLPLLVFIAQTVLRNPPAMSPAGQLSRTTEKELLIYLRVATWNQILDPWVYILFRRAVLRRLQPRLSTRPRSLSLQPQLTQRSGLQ
Experimental: To determine if a compound has agonist or antagonist activity at the TP receptor a functional calcium mobilisation assay may be performed. Briefly, the antagonist properties of compounds are assessed by their ability to inhibit the mobilisation of intracellular calcium ([Ca^2+]i) in response to activation of TP receptors by the stable TXA2 mimetic U46619 (9,11-dideoxy-11α,9α-epoxy-methanoprostaglandin F2α; commercially available from e.g Sigma-Aldrich). Increasing concentrations of antagonist reduce the amount of calcium that a given concentration of U46619 can mobilise. The net effect is to displace the U46619 concentration-effect curve. The amount of calcium produced is assessed using a calcium-sensitive fluorescent dye such as Fluo-4, AM and a suitable instrument such as a Fluorimetric Imaging Plate Reader (FLIPR). Increasing amounts of [Ca^2+]i produced by receptor activation increase the amount of fluorescence produced by the dye and give rise to an increasing signal. The signal may be detected using the FLIPR instrument and the data generated may be analysed with suitable curve-fitting software. The agonist activity of the compounds are determined by their ability to cause an increase in intracellular mobilisation in the absence of U46619.
The human TP calcium mobilisation assay utilises Chinese hamster ovary-K1 (CHO-K1) cells into which a stable (pCIN; BioTechniques 20 (1996): 102-110) vector containing TP cDNA has previously been transfected. Cells are cultured in suitable flasks containing culture medium such as DMEM:F-12 supplemented with 10% v/v foetal calf serum, 2 mM L-glutamine, 0.25 mg/ml geneticin, 100 μM flurbiprofen and 10 μg/ml puromycin.
For assay, cells are harvested using a proprietary reagent that dislodges cells such as Versene. Cells are re-suspended in a suitable quantity of fresh culture media for introduction into a 96-well plate. Following incubation for 24 hours at 37° C. the culture media is replaced with a medium containing Fluo-4 and the detergent pluronic acid, and a further incubation takes place. Concentrations of compounds are then added to the plate in order to construct concentration-effect curves. This may be performed on the FLIPR in order to assess the agonist properties of the compounds. Concentrations of U46619 are then added to the plate in order to assess the antagonist properties of the compounds.
The data so generated may be analysed by means of a computerised curve-fitting routine. The concentration of compound that elicits a half-maximal inhibition of the calcium mobilisation induced by U46619 (pIC50) may then be estimated, and the percentage activation caused by the compounds directly can be used to determine if there is any agonism present.

[2] = target: T2, human EP1 receptor (Homo sapiens, UniProt P34995); assay: human EP1 calcium mobilisation assay; assay type: cell-based; design: expressed in transfected cells; conditions: CHO-K1 cells, antagonism of PGE2; averages of a number of experiments; read-out: functional pKi value (human EP1 calcium mobilisation assay) (converted)
T2 sequence (P34995 1-402): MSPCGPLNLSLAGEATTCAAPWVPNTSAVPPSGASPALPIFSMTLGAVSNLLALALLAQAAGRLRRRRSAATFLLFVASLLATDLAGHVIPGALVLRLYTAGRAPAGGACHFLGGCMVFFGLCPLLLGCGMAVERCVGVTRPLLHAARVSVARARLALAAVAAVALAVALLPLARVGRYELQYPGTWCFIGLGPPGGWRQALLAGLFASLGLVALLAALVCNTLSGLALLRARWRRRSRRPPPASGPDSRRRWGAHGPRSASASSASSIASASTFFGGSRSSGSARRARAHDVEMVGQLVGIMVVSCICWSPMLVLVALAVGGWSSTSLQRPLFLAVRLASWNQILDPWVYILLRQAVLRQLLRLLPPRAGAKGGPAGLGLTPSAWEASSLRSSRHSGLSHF
Summary of the method: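 CHO-K1 cells stably transfected with human EP1 or EP3, loaded with Fluo-4 after 24 h culture, treated with compound, then challenged with PGE2. Calcium-driven fluorescence read on FLIPR; pIC50 is half-maximal inhibition of PGE2-induced calcium mobilisation, from curve fitting.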

Structure (SMILES) | Ki [1] [nM] | Ki [2] [nM]
Cc1cc(C(=O)NN2CCOCC2)nn1Cc1cc(Cl)cc2cc(C3CCCCC3)oc12 [Example 28, 1-[(5-Chloro-2-cyclohexyl-1-benzofuran-7-yl)methyl]-5-methyl-N-4-morpholinyl-1H-pyrazole-3-carboxamide] | > 3160 | ≤ 316
Cc1cc(C(=O)Nc2ccc(CN3CCC(O)CC3)cc2)nn1Cc1cc(Cl)cc2cc(C(C)C)oc12 [Example 16, 1-{[5-Chloro-2-(1-methylethyl)-1-benzofuran-7-yl]methyl}-N-{4-[(4-hydroxy-1-piperidinyl)methyl]phenyl}-5-methyl-1H-pyrazole-3-carboxamide hydrochloride] | > 3160 | ≤ 316
Cc1cc(C(=O)Nc2ccc(CN3CC[C@@H](O)C3)cc2)nn1Cc1cc(Cl)cc2cc(C(C)C)oc12 [Example 17, 1-{[5-Chloro-2-(1-methylethyl)-1-benzofuran-7-yl]methyl}-N-(4-{[(3R)-3-hydroxy-1-pyrrolidinyl]methyl}phenyl)-5-methyl-1H-pyrazole-3-carboxamide hydrochloride] | > 3160 | ≤ 316

The remaining lines, values ahead:

Ki [1] [nM] | Ki [2] [nM] | Structure (SMILES)
< 31.6 | ≤ 316 | CC(C)c1cc2cc(Cl)cc(Cc3ccc(C(=O)O)o3)c2o1 [Example 1, 5-{[5-Chloro-2-(1-methylethyl)-1-benzofuran-7-yl]methyl}-2-furancarboxylic Acid]
> 3160 | ≤ 316 | CCNCc1ccc(NC(=O)c2cc(C)n(Cc3cc(Cl)cc4cc(C(C)C)oc34)n2)cc1 [Example 15, 1-{[5-Chloro-2-(1-methylethyl)-1-benzofuran-7-yl]methyl}-N-{4-[(ethylamino)methyl]phenyl}-5-methyl-1H-pyrazole-3-carboxamide hydrochloride]
< 3160 | ≤ 316 | Cc1cc(C(=O)O)nn1Cc1cc(Cl)cc2cc(C(C)C)oc12 [Example 3, 1-{[5-Chloro-2-(1-methylethyl)-1-benzofuran-7-yl]methyl}-5-methyl-1H-pyrazole-3-carboxylic Acid]
